Test results as given in patent US20050096392A1, “Use of creatine pyruvate for increasing stamina during highly intensive intermittent physical exertion” (priority 2002, published 2005).

How the values were obtained:
[1] = tested on: lower arm musculature; test: Intermittent test with the lower arm musculature, mechanical parameters; type: in vivo, human
Experimental: (§1) In a double-blind study, creatine pyruvate (A) and placebo (B) were tested. The male experimental subjects (n=32; age: 18 to 32) were divided into groups, each of n=16, so that the maximum oxygen consumption per kilogram of body weight was on average the same in the groups, and the types of sport undertaken were usually distributed the same as far as possible. This led to the fact that the mean strength in the intermittent studies was not the same. The test subjects of group A were administered 5.0 g of creatine pyruvate per day over a period of 28 days. The initial test (IT) was carried out on the 1st day, and the closing test (CT) on the 29th day.
(§2) The arm of the seated test subjects is positioned extended (horizontally) at the side at shoulder height. The hand lies on an adjustable-weight gripper (stroke length: 3 cm). The arm is supported at the elbow. The test subjects must perform highly intensive intermittent work, for which they compress the adjustable-weight gripper at the maximum possible frequency. The weight in the basket is 80% of the maximum weight achieved in a preliminary test in which the load, starting at 7.5 kg, is increased by 2.5 kg every 3 minutes. The contraction frequency is 24/min. The maximum weight is reached when the 3 cm stroke length can no longer be overcome. Blood is taken from the cubital vein on the working arm. The skin blood flow is reduced by cooling. Blood was taken in each case before and after the 1st, 2nd, 6th, 9th and 10th period.
Via an inductive distance measurer on the adjustable-weight gripper, the stroke length of the weight basket was measured. From the signal, 4 measurements can be obtained. • 1. Contraction rate • 2. Stroke length • 3. Duration of the total contraction • 4. Integral of stroke length over time
The force is the mean force during the shortening phase, not the point-measurement maximum force. It is only the force which was developed additionally to the force necessary to overcome the force of gravity. In addition, the relaxation rate and the contraction frequency were determined. The evaluation was started with the fourth contraction. Thereafter, each contraction was evaluated over 12 seconds. The mechanical parameters were determined in the 1st, 2nd, 6th and 9th interval.

[2] = tested on: lower arm musculature; test: Intermittent test with the lower arm musculature, blood tests and acid-base status; type: in vivo, human
Experimental: as §1
as §2, with “Blood was taken in each case before and after the 1st, 2nd, 6th, 9th and 10th period.” left out

[3] = parameters: species or system human; details: in vivo
Experimental: as §1, with “day. In the morning between 8 and 11 o'clock fasted blood sampling, record of anthropometric data; standardized breakfast; then intermittent test of the lower arm musculature.” for “day.”

[4] = Double-blind study, anthropometric data; type: in vivo, human
Experimental: as §1, with “day. In the morning between 8 and 11 o'clock fasted blood sampling, record of anthropometric data; standardized breakfast; then intermittent test of the lower arm musculature. […] The circumference of the thickest part of the lower arm increased in group A (p<0.005).” for “day.”

[5] = administration of creatine pyruvate
[6] = highly intensive intermittent work, 80% of maximum weight, analysis of variance, p<0.01
[7] = closing test, day 29, after 5.0 g per day over 28 days
[8] = initial vs closing test, 5.0 g per day over 28 days
[9] = initial vs closing test, p<0.005

creatine pyruvate
Muscle fatigue under highly intensive intermittent exertion [1, 5]: significant reduction in muscle fatigue | Relaxation rate ([1]; highly intensive intermittent work, 80% of maximum weight): showed a tendency to increase | Power calculated from the shortening rate ([1]; highly intensive intermittent work, 80% of maximum weight, analysis of variance, p<0.005): increased in all intervals | Contraction frequency [1, 6]: increased in all intervals | Force [1, 6]: increased in all intervals | Performance in highly intensive exertion ([1]; short exertion and final intervals): significant increase in performance | Overacidification of muscle tissue in highly intensive intermittent exertion [2, 5]: does not occur, or only occurs to a very slight extent | Rise of maximum values during exertion (parameter not named at the place) ([2]; t test for paired random samples, p<0.002): significantly lower rise | Change of HB [3]: not different | Change of Hct [3]: not different | Change of LDL cholesterol [3]: just above the level of significance | Change of leukocyte number [3]: no difference | Change of number of erythrocytes [3]: decreased significantly | Change of uric acid concentration [3]: significant decrease | Creatinine, CT mean [3]: 1.19 | Creatinine, IT mean [3]: 1.07 mg/dL | Effect on fat metabolism at rest [3]: no effect | Effects on kidney and liver function and fat metabolism parameters [3]: no adverse effects | Erythrocytes, CT mean [3]: 4.96 | Erythrocytes, IT mean [3]: 5.3 10^6/µL | Hb, CT mean [3]: 15.4 g/dL | Hb, IT mean [3]: 15.56 | Hct, CT mean [3]: 45.13 | Hct, IT mean [3]: 45.5% | Leukocytes, CT mean [3]: 9386.67 | Leukocytes, IT mean [3]: 8980 µL⁻¹ | PT, CT mean [3]: 6.20 | PT, IT mean [3]: 5.40 | Urea, CT mean [3]: 30.00 | Urea, IT mean [3]: 34.07 | Uric acid, CT mean [3]: 5.29 mg/dL | Uric acid, IT mean [3]: 5.64 mg/dL | BIA fat measurement, CT mean [4, 7]: 16.63 kg | BIA water measurement, CT mean [4, 7]: 47.39 kg | Body fat (skinfold), CT mean [4, 7]: 11.59% | Body weight, CT mean [4, 7]: 83.20 kg | Circumference of lower elbow, CT mean [4, 7]: 29.62 cm | Circumference of thickest point of the arm, CT mean [4, 7]: 29.67 cm | BIA fat measurement, IT mean ([4]; initial test, day 1): 16.69 kg | BIA water measurement, IT mean ([4]; initial test, day 1): 46.64 kg | Body fat (skinfold), IT mean ([4]; initial test, day 1): 11.33% | Circumference of lower elbow, IT mean ([4]; initial test, day 1): 28.94 cm | Circumference of thickest point of the arm, IT mean ([4]; initial test, day 1): 29.01 cm | Body weight, IT mean ([4]; initial test, day 1, group A, 5.0 g per day over 28 days): 81.70 kg | Change of body fat content (skinfold thickness and BIA) [4, 8]: no change in body fat content | Change of body weight [4, 8]: increased significantly | Change of body fat content (skinfold thickness and BIA) ([4]; initial vs closing test, 5.0 g per day over 28 days, listed as A): remained the same | Change of body H2O ([4]; initial vs closing test, one-sided test, p<0.05): increases in body H2O were significant | Change of circumference at the epicondyles [4, 9]: The same applied | Change of circumference of the thickest part of the lower arm [4, 9]: increased
